Data on 15 compounds can be found in ChEMBL document CHEMBL1152970, “Optimization of a series of 2,4-diaminopyridines as neuropeptide Y Y1 receptor antagonists with reduced hERG activity” (Bioorg Med Chem Lett, 2009).

The nature of data set [1]: physchem. The note with it: octanol/water, pH 7.4.
The nature of data set [2]: Plasma concentration in C57BL/6 mouse plasma at 30 mg/kg, ip after 30 mins. Set-up: dose 30 mg/kg, route intraperitoneal. Type of data set: ADME, organism-based, C57BL6.
Data set [3] in a line: Plasma concentration in mdr1a deficient CF-1 mouse at 30 mg/kg, ip after 30 mins. The format is ADME, organism-based. Details: dose 30 mg/kg, route intraperitoneal. The note with it: CF-1 (mdr1a deficient).
The nature of data set [4]: Ratio of drug level in brain to plasma in mdr1a deficient CF-1 mouse at 30 mg/kg, ip after 30 mins. Details: dose 30 mg/kg, route intraperitoneal. The settings on record: CF-1 (mdr1a deficient). Type of data set: ADME, organism-based.
For data set [5], the system named is Brain. In words: Drug level in C57BL/6 mouse brain at 30 mg/kg, ip after 30 mins. The format is ADME, organism-based, C57BL6. Set-up: dose 30 mg/kg, route intraperitoneal. The settings on record: in vivo, 0.5 h.
Data set [6] can be described thus: Ratio of drug level in brain to plasma in C57BL/6 mouse at 30 mg/kg, ip after 30 mins. The format is ADME, organism-based, C57BL6. Set-up: dose 30 mg/kg, route intraperitoneal.
The subject of data set [7] is Brain. As to the kind of experiment: Drug level in mdr1a deficient CF-1 mouse brain at 30 mg/kg, ip after 30 mins. The format is ADME, organism-based. Set-up: dose 30 mg/kg, route intraperitoneal. The note with it: in vivo, 0.5 h.

Each structure is given as a SMILES string. A value given as a limit tells only on which side of the number the result lay.

Usually logD stands for the decadic logarithm of the distribution of all forms, ionised or not, between an organic phase and buffer at a given pH. Read a low logD as lower lipophilicity. In general, Kp refers to the ratio of the level in a tissue or fluid to that in plasma or blood.

Regarding `Cc1nc(SCc2cc(N3CCOCC3)cc(NCC#N)n2)n(C)c1C`, the logD in data set [1] was determined as 1.

`CCc1oc(SCc2cc(N3CCOCC3)cc(NCC#N)n2)nc1C` gave a logD in data set [1] of 2.6.

As to `CCc1oc(CCc2cc(N3CCOCC3)cc(NCC#N)n2)nc1C`, in data set [1], the logD stood at 2.4.

In the case of `CCc1oc(CCc2cc(N3CCOCC3)cc(NC(C)C)n2)nc1C`, the logD in data set [1] was 2.4.

Compound `CCCNc1cc(N2CCOCC2)cc(CCc2nc(C)c(CC)o2)n1` returned a logD in data set [1] of 2.5.

In turn, `CCc1oc(CCc2cc(N3CCOCC3)cc(NC(C)=O)n2)nc1C` registered a logD in data set [1] of 2.3.

Compound `CCc1oc(CCc2cc(N3CCOCC3)cc(NCC(F)(F)F)n2)nc1C` showed a log distribution coefficient (logD) in data set [1] of 3.5.

Regarding `Cc1nc(OCc2cc(N3CCOCC3)cc(NCC#N)n2)oc1C`, in data set [1], the logD turned out to be 2.1.

For `Cc1nc(SCc2cc(N3CCOCC3)cc(NCC#N)n2)sc1C`, the concentration at 0.5 h in data set [2] is 3.4 µM; in data set [3], 5.2 µM. In data set [1], this compound gave a pH-dependent lipophilicity (logD) of 2.4. Moreover, the Kp at 0.5 h in data set [4] stood at 0.9; in data set [6], 0.27. Besides, the figures for the Drug uptake in data set [5] and in data set [7] were 0.9 nmol/g and 4.7 nmol/g, respectively.

In data set [1], `CCc1oc(CCc2cc(N3CCOCC3)cc(NCCC#N)n2)nc1C` came in with a logD of 2.

With `CCOC(=O)CNc1cc(N2CCOCC2)cc(CCc2nc(C)c(CC)o2)n1`, the logD in data set [1] was 2.8.

`Cc1nc(SCc2cc(N3CCOCC3)cc(NCC#N)n2)oc1C`: the logD in data set [1] was determined as 2.

`CCNc1cc(N2CCOCC2)cc(CCc2nc(C)c(CC)o2)n1`: in data set [1], the logD stood at 2.2.

On to `CCc1sc(CCc2cc(N3CCOCC3)cc(NC(C)c3cc(Cl)cc(NC(=O)OC(C)C)c3)n2)nc1C` (stereo unspecified), for which, in data set [1], the logD was over 4.

Regarding `CCc1oc(CCc2cc(N3CCOCC3)cc(NC)n2)nc1C`, the logD in data set [1] worked out at 1.7.
